Data on four molecules can be found in patent USRE37525E1, “Method for treating infectious respiratory diseases” (priority 1991, dated 2002).

Where “and” joins values, the source holds several entries; their conditions need not be identical. Equal values may be shown once. Entries after “also recorded” stand apart in the source; their conditions may differ. Read-outs that look alike come from different tables or passages of the source.

Series [1] relates to parainfluenza virus type 3 (PIV3). The class given is in vivo, cotton rats (Sigmodon hispidus). An excerpt: (§1) Inbred cotton rats (Sigmodon hispidus) were obtained from the colony of Virion Systems, Inc. Adult animals, free from specific rodent pathogens, were used. Animals were housed in large polycarbonate rat cages with a bedding of hardwood chips, and fed a diet of standard rat chow and water. Adult animals ranging from 1 to 8 months of age were used. No age-related differences in response to infection or treatment were seen.
(§2) Hydrocortisone acetate was selected as the prototypical corticosteroid for the anti-inflammatory studies. Cotton rats were infected (Day 0) by intranasal instillation of PIV3 (10^6 pfu/animal) or Ad-5 (10^9 pfu/animal). Animals were anesthetized with methoxyflurane, and the inoculating virus was delivered in a volume of 0.1 ml/100 gm body weight of the animal. On Day 3, animals were anesthetized with methoxyflurane, and hydrocortisone acetate (50 mg/ml) was instilled intranasally in a volume of 0.1 ml/100 gm body weight. The same treatment with hydrocortisone acetate was repeated once per day on Days 4 and 5. For purposes of comparison, control animals were infected concurrently on Day 0, but received no treatment on Days 3, 4, or 5. On Day 6, all animals were euthanized by carbon dioxide intoxication.
These included dexamethasone acetate (8 mg/ml) and triamcinolone acetonide (40 mg/ml). Of course, other corticosteroids or anti-inflammatory agents known to one of ordinary skill in the art could also be used.
(§3) Lungs were removed from the thorax and inflated through the trachea with neutral buffered formalin. Histologic sections were made by following standard procedures and stained with hematoxylin and eosin (H&E).
(§4) Topical administration was accomplished by anesthetizing the animals, holding them in a vertical posture, and instilling a solution containing corticosteroid onto the nares. A total volume of 0.1 ml/100 gm body weight was used. […] However, for human administration it is desirable to use a small particle aerosol delivered by a device that could be triggered by inhalation or used synchronously with the inhalation phase of ventilation for patients on a ventilator. Such a device could deliver aerosol from powder (spinhaler) or liquid. Since many patients, especially young infants and debilitated adults, may have diminished respiratory inhalation vigor, it is important to synchronize aerosol generation with inhalation. This could be accomplished by having inhalation trigger the aerosol delivery to the airway (nasal prongs, oral tube, etc.). The trigger mechanism could include negative pressure from inhalation, chest movement, or electrical triggering synchronized with diaphragmatic contraction. Electrical leads used to monitor respirations could be used to synchronize aerosol generation to be triggered at the first initiation of diaphragmatic contraction and respiration. Any form of aerosol generator is suitable if aerosol delivery is synchronized with inhalation and appropriate particle size is consistently generated.
(§5) Therapeutic efficacy is determined by comparing two parameters in treated versus control animals: (1) the percentage of alveoli on a single H&E-stained coronal section of lungs containing interstitial and/or intraalveolar pathology; and (2) the percentage of bronchioles, on the same section of lungs, affected by peribronchiolar lymphocytic infiltration.
Triamcinolone acetonide was selected as the prototypical corticosteroid for the combined anti-infective and anti-inflammatory studies. […] Therefore, the use of triamcinolone acetonide is merely by example of a general property of corticosteroids. Cotton rats were infected (Day 0) by intranasal instillation of PIV3 (10^6 pfu/animal) or RSV (10^5 pfu/animal). Animals were anesthetized with methoxyflurane, and the inoculating virus was delivered in a volume of 0.1 ml/100 gm body weight of the animal. […]

For series [2], the system named is respiratory syncytial virus (RSV). The format is in vivo. The settings on record: for % Bronchioles: group mean, Table 8, triamcinolone acetonide 4 mg/kg, ribavirin 20 mg/kg, topical Days 3, 4, 5, Day 6; for effect on pulmonary pathology (in words): topical treatment Days 3, 4, 5. On the procedure: (§6) Triamcinolone acetonide was selected as the prototypical corticosteroid for the combined anti-infective and anti-inflammatory studies. […] Cotton rats were infected (Day 0) by intranasal instillation of PIV3 (10^6 pfu/animal) or RSV (10^5 pfu/animal). Animals were anesthetized with methoxyflurane, and the inoculating virus was delivered in a volume of 0.1 ml/100 gm body weight of the animal. On Day 3, animals were anesthetized with methoxyflurane, and treated by intranasal instillation of anti-infective agent or a combination of anti-infective agent and corticosteroid, in a volume of 0.1 ml/100 gm body weight. The same treatment was repeated once per day on Days 4 and 5. For purposes of comparison, control animals were infected concurrently on Day 0, but received no treatment on Days 3, 4, or 5. On Day 6, the time of maximum pulmonary pathology in infected, untreated animals, all animals were euthanized by carbon dioxide intoxication.
(§7) Three experiments were performed using combined therapy: (1) anti-PIV3 antibody (100 mg/kg) and triamcinolone acetonide (4 mg/kg) were used to treat PIV3 infection; (2) anti-RSV antibody (25 mg/kg) and triamcinolone acetonide (4 mg/kg) were used to treat RSV infection; (3) ribavirin (20 mg/kg) and triamcinolone acetonide (4 mg/kg) were used to treat RSV infection. All agents were administered topically as described above in “Drug Testing”.
Histopathology studies. After animals were sacrificed by carbon dioxide intoxication, the chest cavity was opened, and the heart and lungs removed intact. The trachea was cannulated with a blunt needle, the lungs inflated with 10% neutral buffered formalin to their normal volume, and the trachea tied with a suture. Coronal sections of the lungs were cut at a thickness of 4 microns, and stained with hematoxylin and eosin.
Standard published pathologic criteria for the identification and scoring of bronchiolitis and interstitial pneumonia were used (Porter, 1991 J. Virol. 65:103-111). Briefly, bronchiolitis is the accumulation of inflammatory cells, mostly or exclusively lymphocytes, in and around bronchioles. There may be accompanying damage to the epithelial cells, including loss of cilia or cell death. Interstitial pneumonia is thickening of the alveolar walls, usually accompanied by infiltration of inflammatory cells into the alveolar septae. Bronchiolitis was quantitated by examining each bronchiole within the lung section (generally 40-70 bronchioles) and scoring for the presence or absence of lymphocytic infiltration. The percentage of affected bronchioles was then calculated. Interstitial pneumonia was quantitated by estimating the percentage of affected alveolar tissue in the lung section. A minimum of four animals were examined for each time point. Arithmetic means of pathology scores were calculated, and differences between treatment groups evaluated by the Student t-test of summary data. In each experiment, uninfected animals served as sentinels to rule out the presence of adventitious agents.

Series [3] shares this test system. The class given is in vivo. The settings on record: topical treatment Days 3, 4, 5. On the procedure: as §6, §7
(§8) Cotton rats were challenged to induce infection in the following manner. The frozen virus (usually at a concentration of 10^5 pfu/ml) was thawed and then immediately instilled (0.05 ml/nostril) into anesthetized cotton rats. […] Lungs were removed from the animal, homogenized in tissue culture fluid, and cultured on HEp2 monolayers. The amount of virus was then quantified.
(§9) A single pool of purified human IgG, with known neutralizing antibody titer, was used with each virus throughout the experiments, to minimize experimental variability. […] Once determined, this dose was used in all subsequent experiments.
(§10) Titrations of virus in pulmonary tissues. Animals were sacrificed by carbon dioxide intoxication. After the thoracic wall was removed aseptically, the lungs were dissected from the heart, and homogenized in a TenBroeck tissue grinder in 10 parts (v:w) of Hanks, balanced salt solution, modified for stabilizing virus by the addition of 0.218 M sucrose, 4.4 mM glutamate, 3.8 mM KH2PO4 and 7.2 mM K2HPO4. […] After four days incubation at 37° C. under methylcellulose overlay, the cells were stained with crystal violet in glutaraldehyde solution, and the plaques counted. Viral titers were expressed as a geometric mean, plus or minus the standard error, for all animals (a minimum of four) at a given time point. […]

The subject of a further series is adenovirus type 5 (Ad-5). Nature of the series: Pulmonary pathology (histology) in Ad-5-infected cotton rats. The class given is in vivo.
Text: as §1, §2, §3, §4, §5

For series [4], the system named is parainfluenza virus type 3 (PIV3). The format is in vivo. The settings on record: topical treatment Days 3, 4, 5. The protocol: as §6, §7, §8, §9, §10
Where [5] appears, read: group mean, Experiment 5, dexamethasone acetate 8 mg/ml or triamcinolone acetonide 40 mg/ml intranasal Days 3-5, Day 6.
Where [6] appears, read: mean, Exps. 1, 2, 6 and 7 combined.
Where [7] appears, read: range over experiments, treated vs control.
[8] abbreviates: individual animals (Exps. 3, 4).
Where [9] appears, read: group mean, Table 6, triamcinolone acetonide 4 mg/kg, anti-PIV3 IgG 100 mg/kg, topical Days 3, 4, 5, Day 6.

For `CC(=O)OCC(=O)[C@@]1(O)[C@H](C)C[C@H]2[C@@H]3CCC4=CC(=O)C=C[C@]4(C)[C@@]3(F)[C@@H](O)C[C@@]21C` [Dexamethasone, dexamethasone acetate], in series [1] (Experiment 5), the “reduction of alveolar inflammation compared to control values” stood at 28% and the “reduction of bronchiolar inflammation compared to control values” was 75%. For the same molecule, in series [1] (setting [5]), the “% Alveoli” value was determined as 50% and the “% Bronchioles” value is reported as 21%. The “% Bronchioles” value in series [1] (individual animals, Experiment 5) was 29% and 21% and 14%.
With `NC(=O)c1ncn([C@@H]2O[C@H](CO)[C@@H](O)[C@H]2O)n1` [Ribavirin, 1-beta-D-ribofuranosyl-1,2,4,-triazole-3-carboxamide], the “% Bronchioles” value in series [2] is reported as 48 (N.S.) %. For the same molecule, in series [2] (ribavirin 20 mg/kg topical, cotton rat), the “therapeutic effectiveness against RSV infection (in words)” value is on record as “minimally effective”. Moreover, the “effect on pulmonary pathology (in words)” value in series [2] is listed as “nor affected pulmonary pathology”; in series [2] (listed as ribavirin), “no effect on pulmonary pathology”. Moreover, the entries for the “effect on viral titers / viral shedding (in words)” value in series [3] and in series [3] (listed as ribavirin) were “neither effected a significant reduction in pulmonary RSV titers” and “did not reduce viral titers”, respectively.
As to `CC(=O)OCC(=O)[C@@]1(O)CC[C@H]2[C@@H]3CCC4=CC(=O)CC[C@]4(C)[C@H]3[C@@H](O)C[C@@]21C` [hydrocortisone acetate, Hydrocortisone acetate], the “% Bronchioles” value in series [1] (group mean per experiment (Exps. 1, 2, 6, 7), hydrocortisone acetate 50 mg/ml, 0.1 ml/100 gm intranasal Days 3, 4, 5, histology Day 6) is 9% and 15%; in series [1] (setting [6]) it was 15%; in the series on adenovirus type 5 (Ad-5) (setting [8]), 18% and 16% and 21% and 8% and 26% and 37% and 42% and 50%. Also, the “% Alveoli” value in series [1] (setting [6]) is 24%; in the series on adenovirus type 5 (Ad-5) (setting [8]), 10% (2×) and 5% and 9% and 50% and 40% (2×) and 20%. For the same molecule, the “net reduction in disease, alveolar inflammation” value in series [1] (setting [7]) is 27-56%; in the series with adenovirus type 5 (Ad-5) (setting [7]), 46-79%. Besides, the “net reduction in disease, bronchiolar inflammation” value in series [1] (setting [7]) is 77-85%; in the series on adenovirus type 5 (Ad-5) (setting [7]) it was 57-77%. The “exacerbated disease in treated animals” value (in series [1] (topical hydrocortisone acetate); in the series on adenovirus type 5 (Ad-5) (topical hydrocortisone acetate)) was “no evidence of exacerbated disease” throughout.
For `CC1(C)O[C@@H]2C[C@H]3[C@@H]4CCC5=CC(=O)C=C[C@]5(C)[C@@]4(F)[C@@H](O)C[C@]3(C)[C@]2(C(=O)CO)O1` [Triamcinolone, triamcinolone acetonide], in series [2], the “% Bronchioles” value was 0 (p < 0.001) % and the “effect on pulmonary pathology (in words)” value is recorded as “dramatically reduced; also recorded: reduced pulmonary pathology”. Moreover, the “effect on viral titers / viral shedding (in words)” value in series [3] is “prolonged and increased viral shedding”. Besides, in series [4], the “effect on viral titers / viral shedding (in words)” value is “increased and prolonged viral shedding; also recorded: prolonged and increased viral shedding”. Moreover, in series [1] (Experiment 5), the “reduction of alveolar inflammation compared to control values” was 80% and the “reduction of bronchiolar inflammation compared to control values” is reported as 89%. Further, in series [1] (setting [5]), the “% Alveoli” value is 24% and 24 (p < 0.01) %; the “% Bronchioles” value was 9% and 9 (p < 0.001) %. In addition, in series [1] (setting [9]), the “% Alveoli” value is 10 (p < 0.05) % and 10%; the “% Bronchioles” value was 6 (p < 0.001) % and 6%.
